We go through eleven molecules from ChEMBL document CHEMBL3046725, “Synthesis and preliminary antibacterial evaluation of hydroxamic acid and N-formyl hydroxylamine derivatives bearing oxazole ring” (2013).

Values after ≈ are worked out from the molar mass of the structure shown.

Common to all, as to assay type: functional
Assay [1] relates to Staphylococcus aureus. Nature of the assay: Antibacterial activity against Staphylococcus aureus ATCC 25923 after 24 hr by broth microdilution method. The following applies: ATCC 25923, 24 h. Background: Dilution methods test growth across graded concentrations, often in twofold steps.
Assay [2] concerns Streptococcus pneumoniae. Nature of the assay: Antibacterial activity against Streptococcus pneumoniae NCTC 7466 after 24 hr by broth microdilution method. The following applies: NCTC 7466, 24 h.
The test system of assay [3] is Pseudomonas aeruginosa. Briefly: Antibacterial activity against Pseudomonas aeruginosa ATCC 27853 after 24 hr by broth microdilution method. The following applies: ATCC 27853, 24 h.
The test system of assay [4] is Escherichia coli. Nature of the assay: Antibacterial activity against Escherichia coli ATCC 25922 after 24 hr by broth microdilution method. The following applies: ATCC 25922, 24 h.

In the case of `CCCC[C@H](CC(=O)NO)C(=O)N[C@H](c1nc(C(=O)Nc2ccc(C)cc2)co1)C(C)C`, the MIC in assay [1] was 50 µg/mL (≈ 112 µM); in assay [2], 200 µg/mL (≈ 450 µM); in assay [3], 100 µg/mL (≈ 225 µM); in assay [4] it was 25 µg/mL (≈ 56.2 µM).

In the case of `CCCC[C@H](CC(=O)NO)C(=O)N[C@H](c1nc(C(=O)Nc2ccc(F)cc2)co1)C(C)C`, the MIC in assay [1] is 100 µg/mL (≈ 223 µM); in assay [2], greater than 200 µg/mL; in assay [3] it was 100 µg/mL (≈ 223 µM); in assay [4] it was 100 µg/mL (≈ 223 µM).

Regarding `CCCC[C@H](CC(=O)NO)C(=O)N[C@H](c1nc(C(=O)Nc2ccc(F)cn2)co1)C(C)C`, the MIC in assay [1] was 100 µg/mL (≈ 222 µM); in assay [2] it was greater than 200 µg/mL; in assay [3], 100 µg/mL (≈ 222 µM); in assay [4] it was 50 µg/mL (≈ 111 µM).

In the case of `CCCC[C@H](CN(O)C=O)C(=O)N[C@H](c1nc(C(=O)N(CC)CC)co1)C(C)C`, the MIC was 25 µg/mL (≈ 60.9 µM) in assay [1], 50 µg/mL (≈ 122 µM) in assay [2], 100 µg/mL (≈ 244 µM) in assay [3] and 12.5 µg/mL (≈ 30.4 µM) in assay [4].

With `CCCC[C@H](CN(O)C=O)C(=O)N[C@H](c1nc(C(=O)N2CCCCC2)co1)C(C)C`, the MIC in assay [1] was 50 µg/mL (≈ 118 µM); in assay [2], greater than 200 µg/mL; in assay [3] it was 100 µg/mL (≈ 237 µM); in assay [4], 25 µg/mL (≈ 59.2 µM).

Turning to `CCCC[C@H](CN(O)C=O)C(=O)N[C@H](c1nc(C(=O)Nc2ccc(C)cc2)co1)C(C)C`, the MIC in assay [1], in assay [2], in assay [3] and in assay [4] was greater than 200 µg/mL each time.

In the case of `CCCC[C@H](CN(O)C=O)C(=O)N[C@H](c1nc(C(=O)Nc2ccc(F)cc2)co1)C(C)C`, the MIC in assay [1], in assay [2], in assay [3] and in assay [4] was greater than 200 µg/mL in each case.

Regarding `CCCC[C@H](CN(O)C=O)C(=O)N[C@H](c1nc(C(=O)Nc2ccc(F)cn2)co1)C(C)C`, the MIC in assay [1], in assay [2], in assay [3] and in assay [4] was greater than 200 µg/mL throughout.

For the molecule `CCCC[C@H](CN(O)C=O)C(=O)N[C@H](c1nc(C(=O)Nc2ccc(F)c(F)c2)co1)C(C)C`, the minimal inhibitory concentration (MIC) in assay [1], in assay [2], in assay [3] and in assay [4] was greater than 200 µg/mL each time.

Regarding `CCCC[C@H](CN(O)C=O)C(=O)N[C@H](c1nc(C(=O)Nc2ccc3c(c2)OCO3)co1)C(C)C`, the MIC in assay [1], in assay [2], in assay [3] and in assay [4] was greater than 200 µg/mL each time.

In the case of `Cl.O=C(O)c1cn(C2CC2)c2cc(N3CCNCC3)c(F)cc2c1=O` [CIPROFLOXACIN HYDROCHLORIDE], 6.25 µg/mL was the least that counted as inhibitory in assay [2] (MIC).

A word on the MIC: it is the lowest concentration found to suppress growth.
